Measurements from the supplement of paper PMC10307832.

Assays:
Assay in all cases: relative viability (nuclei count vs DMSO), 5 days (fraction); higher = more cells survive
ChaGo-K-1 = test system: ChaGo-K-1
Method in brief: (§1)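 Dosing by pin tool came one day after lung cancer cell lines were seeded in 1536-well plates, using either one drug or a fixed anchor-drug dose plus five library-drug doses (not always all listed) in √10 steps. After 5 days, nuclei were counted on 4× images. Relative viability is treated-well nuclei count divided by vehicle-well nuclei count, and values are medians of duplicate plates.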

EMC-BAC-2 = test system: EMC-BAC-2
Method in brief: as §1

EPLC-272H = test system: EPLC-272H
Method in brief: as §1

HCC-366 = test system: HCC-366
Method in brief: as §1

HCC-44 = test system: HCC-44
Method in brief: as §1

HCC-78 = test system: HCC-78
Method in brief: as §1

HCC-827 = test system: HCC-827
Method in brief: as §1

LCLC-103H = test system: LCLC-103H
Method in brief: as §1

LOU-NH91 = test system: LOU-NH91
Method in brief: as §1

LU99A = test system: LU99A
Method in brief: as §1

LXF-289 = test system: LXF-289
Method in brief: as §1

NCI-H1563 = test system: NCI-H1563
Method in brief: as §1

NCI-H1666 = test system: NCI-H1666
Method in brief: as §1

NCI-H1975 = test system: NCI-H1975
Method in brief: as §1

NCI-H2085 = test system: NCI-H2085
Method in brief: as §1

NCI-H2126 = test system: NCI-H2126
Method in brief: as §1

NCI-H23 = test system: NCI-H23
Method in brief: as §1

NCI-H2405 = test system: NCI-H2405
Method in brief: as §1

NCI-H3122 = test system: NCI-H3122
Method in brief: as §1

RERF-LC-KJ = test system: RERF-LC-KJ
Method in brief: as §1

SK-LU-1 = test system: SK-LU-1
Method in brief: as §1

SW 1573 = test system: SW 1573
Method in brief: as §1

SMILES: COc1cc(N2CCC(C(N)=O)CC2)ccc1Nc1nc(N)c(Cl)c(Nc2ccccc2S(=O)(=O)C(C)C)n1 [HG-5-88-01] + CC(C)C[C@H](NC(=O)[C@H](Cc1ccccc1)NC(=O)c1cnccn1)B(O)O [Bortezomib] (partner 0.002 µM)
- relative viability (ChaGo-K-1; first compound 0.04 µM): 1.11
- relative viability (ChaGo-K-1; first compound 0.1265 µM): 0.983
- relative viability (ChaGo-K-1; first compound 0.4 µM): 0.976
- relative viability (ChaGo-K-1; first compound 1.265 µM): 1.02
- relative viability (ChaGo-K-1; first compound 4 µM): 0.785
- relative viability (EMC-BAC-2; first compound 0.04 µM): 1.07
- relative viability (EMC-BAC-2; first compound 0.1265 µM): 1.06
- relative viability (EMC-BAC-2; first compound 0.4 µM): 1.04
- relative viability (EMC-BAC-2; first compound 1.265 µM): 1.09
- relative viability (EMC-BAC-2; first compound 4 µM): 0.931
- relative viability (EPLC-272H; first compound 0.04 µM): 0.854
- relative viability (EPLC-272H; first compound 0.1265 µM): 0.941
- relative viability (EPLC-272H; first compound 0.4 µM): 1
- relative viability (EPLC-272H; first compound 1.265 µM): 0.851
- relative viability (EPLC-272H; first compound 4 µM): 0.385
- relative viability (HCC-366; first compound 0.04 µM): 1.11
- relative viability (HCC-366; first compound 0.1265 µM): 1.09
- relative viability (HCC-366; first compound 0.4 µM): 0.972
- relative viability (HCC-366; first compound 1.265 µM): 1.04
- relative viability (HCC-366; first compound 4 µM): 1.24
- relative viability (HCC-44; first compound 0.04 µM): 0.901
- relative viability (HCC-44; first compound 0.1265 µM): 0.868
- relative viability (HCC-44; first compound 0.4 µM): 0.679
- relative viability (HCC-44; first compound 1.265 µM): 0.832
- relative viability (HCC-44; first compound 4 µM): 0.754
- relative viability (HCC-78; first compound 0.04 µM): 0.467
- relative viability (HCC-78; first compound 0.1265 µM): 0.369
- relative viability (HCC-78; first compound 0.4 µM): 0.393
- relative viability (HCC-78; first compound 1.265 µM): 0.218
- relative viability (HCC-78; first compound 4 µM): 0.211
- relative viability (HCC-827; first compound 0.04 µM): 1.07
- relative viability (HCC-827; first compound 0.1265 µM): 1.05
- relative viability (HCC-827; first compound 0.4 µM): 1.06
- relative viability (HCC-827; first compound 1.265 µM): 1.14
- relative viability (HCC-827; first compound 4 µM): 0.472
- relative viability (LCLC-103H; first compound 0.04 µM): 1.02
- relative viability (LCLC-103H; first compound 0.1265 µM): 0.995
- relative viability (LCLC-103H; first compound 0.4 µM): 0.913
- relative viability (LCLC-103H; first compound 1.265 µM): 1.01
- relative viability (LCLC-103H; first compound 4 µM): 1.01
- relative viability (LOU-NH91; first compound 0.04 µM): 0.54
- relative viability (LOU-NH91; first compound 0.1265 µM): 0.53
- relative viability (LOU-NH91; first compound 0.4 µM): 0.472
- relative viability (LOU-NH91; first compound 1.265 µM): 0.48
- relative viability (LOU-NH91; first compound 4 µM): 0.48
- relative viability (LU99A; first compound 0.04 µM): 1.09
- relative viability (LU99A; first compound 0.1265 µM): 1.15
- relative viability (LU99A; first compound 0.4 µM): 1.03
- relative viability (LU99A; first compound 1.265 µM): 1.21
- relative viability (LU99A; first compound 4 µM): 1.07
- relative viability (LXF-289; first compound 0.04 µM): 1.04
- relative viability (LXF-289; first compound 0.1265 µM): 0.994
- relative viability (LXF-289; first compound 0.4 µM): 0.909
- relative viability (LXF-289; first compound 1.265 µM): 1.05
- relative viability (LXF-289; first compound 4 µM): 0.981
- relative viability (NCI-H1563; first compound 0.04 µM): 0.827
- relative viability (NCI-H1563; first compound 0.1265 µM): 0.92
- relative viability (NCI-H1563; first compound 0.4 µM): 0.925
- relative viability (NCI-H1563; first compound 1.265 µM): 0.765
- relative viability (NCI-H1563; first compound 4 µM): 0.855
- relative viability (NCI-H1666; first compound 0.04 µM): 0.944
- relative viability (NCI-H1666; first compound 0.1265 µM): 0.897
- relative viability (NCI-H1666; first compound 0.4 µM): 0.597
- relative viability (NCI-H1666; first compound 1.265 µM): 0.58
- relative viability (NCI-H1666; first compound 4 µM): 0.452
- relative viability (NCI-H1975; first compound 0.04 µM): 0.349
- relative viability (NCI-H1975; first compound 0.1265 µM): 0.452
- relative viability (NCI-H1975; first compound 0.4 µM): 0.381
- relative viability (NCI-H1975; first compound 1.265 µM): 0.344
- relative viability (NCI-H1975; first compound 4 µM): 0.23
- relative viability (NCI-H2085; first compound 0.04 µM): 0.986
- relative viability (NCI-H2085; first compound 0.1265 µM): 1.13
- relative viability (NCI-H2085; first compound 0.4 µM): 0.922
- relative viability (NCI-H2085; first compound 1.265 µM): 1.01
- relative viability (NCI-H2085; first compound 4 µM): 0.917
- relative viability (NCI-H2126; first compound 0.04 µM): 1.16
- relative viability (NCI-H2126; first compound 0.1265 µM): 1.12
- relative viability (NCI-H2126; first compound 0.4 µM): 1.13
- relative viability (NCI-H2126; first compound 1.265 µM): 1.15
- relative viability (NCI-H2126; first compound 4 µM): 1.12
- relative viability (NCI-H23; first compound 0.04 µM): 0.954
- relative viability (NCI-H23; first compound 0.1265 µM): 1.02
- relative viability (NCI-H23; first compound 0.4 µM): 0.91
- relative viability (NCI-H23; first compound 1.265 µM): 1.12
- relative viability (NCI-H23; first compound 4 µM): 0.629
- relative viability (NCI-H2405; first compound 0.04 µM): 1.01
- relative viability (NCI-H2405; first compound 0.1265 µM): 0.977
- relative viability (NCI-H2405; first compound 0.4 µM): 0.929
- relative viability (NCI-H2405; first compound 1.265 µM): 0.933
- relative viability (NCI-H2405; first compound 4 µM): 0.946
- relative viability (NCI-H3122; first compound 0.04 µM): 0.894
- relative viability (NCI-H3122; first compound 0.1265 µM): 0.647
- relative viability (NCI-H3122; first compound 0.4 µM): 0.335
- relative viability (NCI-H3122; first compound 1.265 µM): 0.296
- relative viability (NCI-H3122; first compound 4 µM): 0.216
- relative viability (RERF-LC-KJ; first compound 0.04 µM): 1.23
- relative viability (RERF-LC-KJ; first compound 0.1265 µM): 1.19
- relative viability (RERF-LC-KJ; first compound 0.4 µM): 1.08
- relative viability (RERF-LC-KJ; first compound 1.265 µM): 0.992
- relative viability (RERF-LC-KJ; first compound 4 µM): 0.639
- relative viability (SK-LU-1; first compound 0.04 µM): 0.976
- relative viability (SK-LU-1; first compound 0.1265 µM): 1.2
- relative viability (SK-LU-1; first compound 0.4 µM): 1.07
- relative viability (SK-LU-1; first compound 1.265 µM): 0.973
- relative viability (SK-LU-1; first compound 4 µM): 0.336
- relative viability (SW 1573; first compound 0.04 µM): 1.34
- relative viability (SW 1573; first compound 0.1265 µM): 1.08
- relative viability (SW 1573; first compound 0.4 µM): 0.997
- relative viability (SW 1573; first compound 1.265 µM): 0.978
- relative viability (SW 1573; first compound 4 µM): 0.821
